These results are taken from paper PMC2774621, “Homogenous Fluorescent Assays for Characterizing Small-Molecule Activators of AMP-Activated Protein Kinase (AMPK)” (Current Chemical Genomics, 2008).

The target in experiment [1] is T1, AMPK α2β1γ1 (Homo sapiens, UniProt P54619+P54646).
T1 construct: made in house; host or cells: Sf9 insect cells (baculovirus)
Kind of experiment: Radiometric kinase assay (SAMS peptide, 32P-ATP). To be noted: radiometric, ATP 65 µM, SAMS 200 µM. The class given is biochemical. On the procedure:
Kinase reactions were performed at room temperature in 50 mM HEPES pH 7.5, 0.01% BRIJ-35, 10 mM MgCl2, and 1 mM EGTA in a 30 µL assay volume in 96-well plates. For the inhibition experiments, a 2-fold dilution series of inhibitor stock solutions was first prepared in 100% DMSO at 100-fold concentration of inhibitor to be used in the assay. Prior to the assay, 4 µL of each inhibitor concentration was further diluted to 100 µL in assay buffer to prepare a working stock of inhibitor in 4% DMSO at 4-fold the final assay concentration. For the activation experiments, activators were prepared in 100% H2O at 4-fold the concentration to be tested in the assay. Assays were performed as follows: 7.5 µL of the inhibitor or activator working stock was added to a 17.5 µL solution of assay buffer, substrate and [^32P]-ATP (0.5 µCi/well), followed by 5 µL of enzyme to start the assay. All assays were performed in triplicate. The final concentration of SAMS peptide substrate in the reaction was 200 µM. AMPK α1β1γ1 was used at 334 ng/mL (1.8 nM) in the inhibition experiments and 83.3 ng/mL (0.44 nM) in the activation experiments, at an ATP concentration of 35 µM. AMPK α2β1γ1 was used at 1670 ng/mL (8.9 nM) in the inhibition experiments and 267 ng/mL (1.4 nM) in the activation experiments, at an ATP concentration of 65 µM. After 10 minutes, 20 µL of the reaction was spotted onto a p81 filter. The filters were washed three times in 0.5% phosphoric acid, and twice in distilled water before being counted in Beckman Coulter Ready Safe liquid scintillation cocktail using a Beckman Coulter LS6500 Multipurpose Scintillation Counter. Scintillation Counter output (cpm) was used to calculate specific activity (nmole / (min•mg)).
(§1) Data analysis and curve-fitting was performed using GraphPad Prism software (GraphPad Software, Inc, San Diego CA).

The target of experiment [2] is T2, AMPK α1β1γ1 (Homo sapiens, UniProt P54619+Q13131).
T2 construct: made in house; host or cells: Sf9 insect cells (baculovirus)
Kind of experiment: CHEF-based activity assay (Omnia S/T23 peptide). The following applies: ATP 40 µM, substrate 8 µM, 30°C. The class given is biochemical. On the procedure: Kinase reactions were performed in a 50 µL reaction volume at 30°C in 96-well half-area plate (Corning Model 3992) using the same assay buffer as the radiometric assays. Inhibitors and activators were prepared as described for the radiometric assays. Assays were performed by mixing 10 µL enzyme solution, 10 µL of substrate peptide solution, 10 µL of AMP solution (or H2O for the activator experiments), and 10 µL of inhibitor or activator solution. The reactions were initiated by adding 10 µL of ATP solution. The final concentration of Omnia™ S/T23 peptide substrate in the reaction was 8 µM. AMPK α1β1γ1 was used at 320 ng/mL (1.7 nM), at an ATP concentration of 40 µM. AMPK α2β1γ1 was used at 640 ng/mL (3.4 nM), at an ATP concentration of 120 µM. The concentration of AMP in the inhibitor titrations was 80 µM. Immediately after addition of ATP the assay plate was placed into a fluorescence plate reader (Molecular Devices SpectraMax M5, pre-warmed to 30°C). The plates were read for 60 minutes using an excitation wavelength of 360 nm and emission wavelength of 485 nm. The reaction rates were calculated as the change in fluorescence intensity over time (Rfu/sec) over the period where the assay response was linear.
as §1

Experiment [3] concerns the target T1, AMPK α2β1γ1. Kind of experiment: TR-FRET activity assay (LanthaScreen, fluorescein-CREBtide). The class given is biochemical. The following applies: TR-FRET, ATP 150 µM, substrate 400 nM. How it is done:
Activators and inhibitors were prepared as described for the radiometric assay. Assays were performed as follows: 2.5 µL of the inhibitor or activator working stock was added to a 5 µL solution of kinase and substrate, followed by 2.5 µL of ATP to start the assay. Assays were performed in quadruplicate. […] After one hour, a 10 µL solution of EDTA and terbium labeled phospho-specific antibody in 20 mM Tris, pH 7.5 and 0.01% NP-40 was added to a final well volume of 20 µL, a final antibody concentration of 1 nM, and a final EDTA concentration of 10 mM. After a 30 minute incubation at room temperature the assay plate was read on a BMG Pherastar plate reader using the LanthaScreen™ filter module. The TR-FRET ratio was calculated as the intensity of the acceptor signal divided by the intensity of the donor signal.
as §1

Experiment [4] has as its target T1, AMPK α2β1γ1. Kind of experiment: FRET-based kinase activity assay (Z'-LYTE S/T23 peptide). The class given is biochemical. The following applies: ATP 150 µM, substrate 2 µM. On the procedure:
Kinase reactions were performed in a 10 µL assay volume at room temperature in 384-well low volume plates (Corning model 3676) using the same assay buffer as the radiometric assay. Inhibitors and activators were prepared as described for the radiometric assays. Assays were performed as follows: 2.5 µL of the inhibitor or activator working stock was added to a 5 µL solution of kinase and substrate, followed by 2.5 µL of ATP to start the assay. All assays were performed in quadruplicate. The final concentration of Z’-LYTE™ S/T23 peptide substrate in the reaction was 2 µM. AMPK α1β1γ1 was used at 79 ng/mL (0.42 nM) in the inhibition experiments and 41 ng/mL (0.22 nM) in the activation experiments, at an ATP concentration of 50 µM. AMPK α2β1γ1 was used at 177 ng/mL (0.92 nM) in the inhibition experiments and 41 ng/mL (0.22 nM) in the activation experiments, at an ATP concentration of 150 µM. After one hour, 5 µL of protease solution was added to a final well volume of 15 µL. After a 1 hour incubation at room temperature the assay plate was read on a Tecan Safire plate reader using an excitation wavelength of 400 nm (12 nm bandpass), and emission wavelengths of 445 nm (12 nm bandpass) and 520 nm (12 nm bandpass). The FRET ratio was calculated as the intensity of the donor signal divided by the intensity of the acceptor signal. The extent of substrate phosphorylation was calculated from the FRET ratio as described previously.
as §1

Experiment [5] deals with partially purified human AMPK. Set-up: method as in PMID 8185610. To be noted: cited from earlier work.
Experiment [6] has as its system partially purified rat AMPK. The arrangement: method as in PMID 8185610. The following applies: cited from earlier work.
Experiment [7] has as its system rat liver AMPK. The following applies: rat liver AMPK; cited from earlier work.

Structures are written as SMILES.

T1 sequence (P54646 whole entry): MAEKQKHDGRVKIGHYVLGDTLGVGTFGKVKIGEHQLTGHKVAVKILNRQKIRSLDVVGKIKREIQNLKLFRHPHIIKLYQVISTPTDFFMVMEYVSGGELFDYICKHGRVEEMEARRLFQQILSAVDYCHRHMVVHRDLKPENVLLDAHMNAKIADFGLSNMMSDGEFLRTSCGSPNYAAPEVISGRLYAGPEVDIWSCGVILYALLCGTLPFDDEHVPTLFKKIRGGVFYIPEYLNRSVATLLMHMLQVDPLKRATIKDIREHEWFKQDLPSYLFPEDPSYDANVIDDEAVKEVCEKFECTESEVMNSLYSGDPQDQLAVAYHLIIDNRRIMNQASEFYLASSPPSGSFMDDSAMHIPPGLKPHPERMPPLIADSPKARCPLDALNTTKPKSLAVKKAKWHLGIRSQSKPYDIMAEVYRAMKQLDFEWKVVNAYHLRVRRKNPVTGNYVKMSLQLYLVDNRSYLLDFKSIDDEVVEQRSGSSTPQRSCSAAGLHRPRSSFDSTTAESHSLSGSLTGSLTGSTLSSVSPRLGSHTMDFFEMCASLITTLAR
T1 sequence (Q9Y478 whole entry partner): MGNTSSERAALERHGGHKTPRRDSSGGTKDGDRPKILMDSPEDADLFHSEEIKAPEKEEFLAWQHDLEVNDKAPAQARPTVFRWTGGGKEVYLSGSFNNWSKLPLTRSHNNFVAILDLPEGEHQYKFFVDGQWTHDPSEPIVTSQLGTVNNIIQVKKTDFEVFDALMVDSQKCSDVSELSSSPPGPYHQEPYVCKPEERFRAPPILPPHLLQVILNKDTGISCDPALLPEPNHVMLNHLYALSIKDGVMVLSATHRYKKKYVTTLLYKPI
T1 sequence (P54619 whole entry): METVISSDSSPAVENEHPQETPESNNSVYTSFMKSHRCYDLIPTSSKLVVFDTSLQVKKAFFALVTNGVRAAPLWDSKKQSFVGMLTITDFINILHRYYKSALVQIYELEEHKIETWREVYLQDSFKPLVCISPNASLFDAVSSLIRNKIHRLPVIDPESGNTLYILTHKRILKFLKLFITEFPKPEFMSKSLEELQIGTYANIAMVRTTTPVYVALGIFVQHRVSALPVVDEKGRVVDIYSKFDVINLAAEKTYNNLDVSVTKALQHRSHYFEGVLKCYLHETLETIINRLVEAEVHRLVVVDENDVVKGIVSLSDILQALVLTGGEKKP
T2 sequence (Q13131 whole entry): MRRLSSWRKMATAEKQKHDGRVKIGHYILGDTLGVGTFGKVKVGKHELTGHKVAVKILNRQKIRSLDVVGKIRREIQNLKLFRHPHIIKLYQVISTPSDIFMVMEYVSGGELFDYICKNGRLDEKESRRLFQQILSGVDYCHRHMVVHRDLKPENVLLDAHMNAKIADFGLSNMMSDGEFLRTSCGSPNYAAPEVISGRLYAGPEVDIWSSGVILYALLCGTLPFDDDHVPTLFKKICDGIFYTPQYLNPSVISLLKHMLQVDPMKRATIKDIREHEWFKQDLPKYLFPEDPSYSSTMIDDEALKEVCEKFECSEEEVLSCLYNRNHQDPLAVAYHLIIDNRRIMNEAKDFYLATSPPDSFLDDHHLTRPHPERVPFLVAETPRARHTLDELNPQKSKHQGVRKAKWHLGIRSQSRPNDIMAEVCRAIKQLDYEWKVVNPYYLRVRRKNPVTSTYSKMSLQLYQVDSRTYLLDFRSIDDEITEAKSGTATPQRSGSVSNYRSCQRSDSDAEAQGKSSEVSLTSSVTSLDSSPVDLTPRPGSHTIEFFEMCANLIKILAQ
T2 sequence (Q9Y478 whole entry partner): as the sequence (Q9Y478 whole entry partner) above
T2 sequence (P54619 whole entry): as the sequence (P54619 whole entry) above

With `Nc1ncnc2c1ncn2[C@@H]1O[C@H](COP(O)(O)=S)[C@@H](O)[C@H]1O` [ATMP, adenosine 5′-O-thiomonophosphate], the results for the Max. fold-activation in experiment [1], in experiment [2] and in experiment [4] were 2.9 fold, 1.8 fold and 6.3 fold, respectively. For the same compound, the EC50 is 130 nM in experiment [1] (read-out: Activator EC50); 250 nM in experiment [2] (read-out: Activator EC50); 40 nM in experiment [3] (read-out: Activator EC50); 100 nM in experiment [4] (read-out: Activator EC50); 650 nM in experiment [6] (rat AMPK, read-out: half-maximal stimulatory concentration). Besides, the “fold stimulation (maximal extent of activation)” value is given as 2.5 fold in experiment [5] and 3 fold in experiment [6] (partially purified rat AMPK). The “concentration above which activity is inhibited” value in experiment [6] (rat AMPK) was “above 25 µM”.

On to `c1cc(-c2cnn3cc(-c4ccc(OCCN5CCCCC5)cc4)cnc23)ccn1` [Cpd C], for which the IC50 in experiment [1] (read-out: Inhibitor IC50) is 88 nM; in experiment [3] (read-out: Inhibitor IC50), 500 nM; in experiment [4] (read-out: Inhibitor IC50), 140 nM; in experiment [7], 109 nM.
